What was measured:
[1] = system: housefly, Musca domestica; assay: Housefly continuous exposure on treated glazed tile (paper cup arena); format: in vivo
Excerpt: Treatments were allowed to dry overnight. The housefly testing arena consisted of a 16 oz. paper cup where the bottom of the cup was removed and replaced with a piece of standard window screen. Ten adult houseflies (mixed ratio) were placed in each cup and covered with a 4″×5″ index card to prevent escape. Houseflies were continuously exposed to the treatment by inverting the testing arena and sliding the cup from the index card to the treated tile surface. Treatments were replicated a minimum of three times.

[2] = octanol-water partition coefficient (Log K ow), Table 1; cited from earlier work
Aedes aegypti mosquito = assay: USDA Petri Dish Method, 3 min exposure to dipped fiberglass window screen; format: in vivo
Method: MATERIALS AND METHODS: Aqueous solutions of 1% deltamethrin with and without an adjuvant composition, which is sold under the tradename Suspend® SC. […] Pre-cut fiberglass screen (5″×5″, or 161.3 cm^2) were dipped in each treatment solution and excessive solution was allowed to drain completely (see FIG. 23 a). Weight of the solution coated on the screen was then determined. The treated screen was then allowed to air-dry overnight. USDA Petri Dish Method was used as initial screening protocol (see FIG. 23 b). Twenty, 4-6 day old female Aedes aegypti were exposed to treated window screen for 3 minutes and then moved onto a clean untreated white paper index card. Treatments were replicated a minimum of three times. Mosquito knockdown was evaluated at 3 minute intervals for the first 15 minutes and then at 5 minute intervals for the remainder of an hour. A small cotton ball with sucrose solution was added on the screen top of the Petri dish as a drinking source. Mortality was evaluated at 24 hours after exposure.
MATERIALS AND METHODS: Several rates of permethrin without adjuvant were prepared using product sold under the tradename Permanone® 40 to determine an effective rate against Aedes aegypti mosquitoes. After determining an effective rate range, aqueous solutions of permethrin at 1.25, 1.0 and 0.05% AI were prepared with and without adjuvant. […] Pre-cut fiberglass screens (5″×5″ or 161.3 cm^2) were dipped in each treatment solution allowing excessive solution to drain completely. Weight of the solution coated on the screen was then determined. The treated screen was then allowed to air-dry overnight. USDA Petri Dish Method was used as initial screening protocol (see photo, right). Twenty, 4-6 day old female Aedes aegypti were exposed to treated window screen for 3 minutes and then moved to a clean untreated white paper index card. Treatments were replicated a minimum of three times. Mosquito knockdown was evaluated at 3 minute intervals for the first 15 minutes and then at 5 minute intervals for the remainder of an hour. A small cotton ball with sucrose solution was added on the screen top of the petri-dish as a drinking source. Mortality was evaluated at 24 hours after exposure.

spiders = assay: Spider control field trial on structures (spider counts in treated and untreated plots); format: in vivo; details: imidacloprid ca. 22 mg AI per sq. m; deltamethrin ca. 12 mg AI per sq. m
Excerpt: Replicated plots (e.g., 1 meter sq. or as site dictates) were defined for treatment and observations. All living spiders in this area were counted, and the trial was begun by sweeping down all webbing, being careful not to harm the resident spiders in the process. The combinations were applied in the very sites formerly occupied by the spiders. The sites were re-visited intermittently, and total number of spiders in treated and untreated plots were counted. The evaluations were continued until the control failed, or as long as was practical. All formulations were diluted in water before treatment. All imidacloprid treatments were applied to the plots at the same rate of ca. 22 mg AI per sq. m. of surface area; deltamethrin was applied at the label rate of ca. 12 mg AI per sq. m. of surface area and served as a positive control. All treatments were replicated in three plots.

[3] = system: German cockroach (Blattella germanica); assay: Contact efficacy against cockroaches on filter papers in glass dishes; format: in vivo
Excerpt: The objective of this study was to evaluate differences between deltamethrin and imidacloprid with and without adjuvant against cockroaches. The method for determining contact efficacy against cockroaches was the same as that in Example 107.

[4] = system: ants (persistent ant trails); assay: Ant control field trial (ant trail counts after barrier spray); format: in vivo
Excerpt: The purpose of this example was to consider whether combinations of imidacloprid and adjuvant, believed acting as free radical stabilizers, is effective at controlling ant populations. The general methodology used in this analysis first involved locating a site with persistent ant trails; e.g., trails over surfaces of buildings, at structural guidelines (expansion joints, utility lines, and the like), or points where ants emerge from beneath or behind a structural element. A point of observation was fixed along the trail or point of emergence as the individual plot(s) for observations of the effects of treatment on ant activity. The near environment (structural substrate, mulch beds, ground, and the like) was sprayed to form a continuous barrier that intercepts the trailing ants in a barrier ca. 2 ft up and 2 ft out from foundation wall, and extending 2 to 3 feet on either side of the ant trail. After treatment, the observers returned to observe ant activity and count ant traffic at intervals after treatment. The evaluations were continued until the control failed, or as long as was practical. All formulations were diluted in water before treatment. Application rates, in terms of mg AI per sq. m., were as indicated in the tables. deltamethrin served as a positive control. All treatments were replicated in four plots.

[5] = 0.00032% Deltamethrin in acetone
[6] = 0.0016% Deltamethrin in acetone

Structure (SMILES): CC[S+]([O-])c1c(C#N)nn(-c2c(Cl)cc(C(F)(F)F)cc2Cl)c1N (stereo not shown) [Ethiprole (1%)]
- Average % Knockdown & Mortality after 3 hr ([1]; Table 58, housefly, glazed tile, continuous exposure, 3 hr): 0%
- Average % Knockdown & Mortality after 5 hr ([1]; Table 58, housefly, glazed tile, continuous exposure, 5 hr): 0%
- Average % Knockdown & Mortality after 7 hr ([1]; Table 58, housefly, glazed tile, continuous exposure, 7 hr): 3%
- Average % Knockdown & Mortality after 24 hr ([1]; Table 58, housefly, glazed tile, continuous exposure, 24 hr): 97%
- Average % Knockdown & Mortality after 1 hr ([1]; Table 58, housefly, glazed tile, continuous exposure, adjuvant = Compound A 1% + Compound B 0.5%, 1 hr): 0%

Structure (SMILES): CNC(=O)Oc1cccc2c1OC(C)(C)O2 [bendiocarb]
- Log P [2]: 1.7

Structure (SMILES): CC1(C)[C@H](C(=O)O[C@H](C#N)c2cccc(Oc3ccccc3)c2)[C@@H]1C=C(Br)Br [deltamethrin (1%)]
- Average % Knockdown & Mortality after 3 min (Aedes aegypti mosquito; 3 min, Table 26, aqueous deltamethrin/adjuvant, dipped screen, 3 min exposure): 0%
- Average % Knockdown & Mortality after 9 min (Aedes aegypti mosquito; 9 min, Table 26, aqueous deltamethrin/adjuvant, dipped screen, 3 min exposure): 0%
- Average % Knockdown & Mortality after 15 min (Aedes aegypti mosquito; 15 min, Table 26, aqueous deltamethrin/adjuvant, dipped screen, 3 min exposure): 0%
- Average % Knockdown & Mortality after 30 min (Aedes aegypti mosquito; 30 min, Table 26, aqueous deltamethrin/adjuvant, dipped screen, 3 min exposure): 27%
- Average % Knockdown & Mortality after 60 min (Aedes aegypti mosquito; 60 min, Table 26, aqueous deltamethrin/adjuvant, dipped screen, 3 min exposure): 84%
- Average % Knockdown & Mortality after 24 hr (Aedes aegypti mosquito; 24 hr, Table 26, aqueous deltamethrin/adjuvant, dipped screen, 3 min exposure): 100%

Structure (SMILES): CC1(C)[C@H](C(=O)O[C@H](C#N)c2cccc(Oc3ccccc3)c2)[C@@H]1C=C(Br)Br [deltamethrin]
- mortality at 24 hours after exposure (Aedes aegypti mosquito; 1% deltamethrin alone, treated screen): 100%
- efficacy of the substance alone (summary in words) (Aedes aegypti mosquito; Aedes aegypti, treated window screen): good knockdown
- suppression of spider populations relative to the untreated control (cross trial average) (spiders): 83.4%
- % Mortality after 15′ [3, 5]: 0%
- % Mortality after 30′ [3, 5]: 0%
- % Mortality after 1 h [3, 5]: 0%
- % Mortality after 2 h [3, 5]: 20%
- % Mortality after 4 h [3, 5]: 20%
- % Mortality after 6 h [3, 5]: 20%
- % Mortality after 1 d [3, 5]: 100%
- % Mortality after 15′ [3, 6]: 40%
- % Mortality after 30′ [3, 6]: 60%
- % Mortality after 1 h [3, 6]: 80%
- % Mortality after 2 h [3, 6]: 100%
- % Mortality after 4 h [3, 6]: 100%
- % Mortality after 6 h [3, 6]: 100%
- % Mortality after 1 d [3, 6]: 100%
- reduction in ant activity, cross-trial average (relative to pretreatment counts) [4]: 57.9%

Structure (SMILES): CC[S+]([O-])c1c(C#N)nn(-c2c(Cl)cc(C(F)(F)F)cc2Cl)c1N (stereo not shown) [ethiprole]
- Log P [2]: 2.90
- mortality after about 6 hours ([1]; ethiprole 0.01% with or without adjuvant (FIG. 52)): about 6%

Structure (SMILES): O=[N+]([O-])NC1=NCCN1Cc1ccc(Cl)nc1 [imidacloprid]
- suppression of spider populations relative to the untreated control (cross trial average) (spiders): around 24.5%
- % Mortality after 15′ ([3]; 0.04% Imidacloprid in acetone): 0%
- % Mortality after 30′ ([3]; 0.04% Imidacloprid in acetone): 0%
- % Mortality after 1 h ([3]; 0.04% Imidacloprid in acetone): 0%
- % Mortality after 2 h ([3]; 0.04% Imidacloprid in acetone): 0%
- % Mortality after 4 h ([3]; 0.04% Imidacloprid in acetone): 0%
- % Mortality after 6 h ([3]; 0.04% Imidacloprid in acetone): 0%
- % Mortality after 1 d ([3]; 0.04% Imidacloprid in acetone): 0%
- % Mortality after 15′ ([3]; 0.2% Imidacloprid in acetone): 0%
- % Mortality after 30′ ([3]; 0.2% Imidacloprid in acetone): 0%
- % Mortality after 1 h ([3]; 0.2% Imidacloprid in acetone): 0%
- % Mortality after 2 h ([3]; 0.2% Imidacloprid in acetone): 0%
- % Mortality after 4 h ([3]; 0.2% Imidacloprid in acetone): 0%
- % Mortality after 6 h ([3]; 0.2% Imidacloprid in acetone): 0%
- % Mortality after 1 d ([3]; 0.2% Imidacloprid in acetone): 0%
- efficacy with adjuvant compared with insecticide alone (summary in words) ([3]; filter papers in glass dishes): no mortality was observed, with or without adjuvant
- reduction in ant activity, cross-trial average (relative to pretreatment counts) [4]: 34.1%
